Several values for one entry are separate records, joined by “and”; a condition that tells them apart may be missing. Equal values may be shown once. Read-outs that look alike come from different tables or passages of the source. Marks after values point to notes of the source that are not given here.
What was measured:
[1] = test system: Mäusen; settings: mouse, in vivo; cited from earlier work
[2] = test system: Ratte; settings: rat, cited from earlier work
[3] = test system: Globodera rostochinesis und Globodera pallida; test: Nematicidal effect: lethal concentrations on second-stage juveniles, 24 h (Example 1); settings: for LC50: read-out: CL50; for EC100: read-out: CL100
[4] = Acute toxicity in male Albino-Swiss mouse, intraperitoneal (Example 3); type: in vivo, Albino-Swiss Maus; settings: mouse, in vivo, ip, male Albino-Swiss mouse, intraperitoneal, 24 h, estimated from regression curve; read-out: DL50
Excerpt: (§1) Man studierte die Toxizität bei einer männlichen ,Albino-Swiss" Maus mittels der intraperitonealen (i.p.) Anwendung variabler Dosen von trans-1,3-Diphenyl-2-propen-1-on bei 10 […] zur Behandlung. Man wertete die Nummer der toten Tiere nach 24 Stunden der Anwendung und berechnete die Gleichung der Regressionskurve, die die Resultate des Experimentes besser beschreibt. Ausgehend von den Regressionsgleichungen schätzte man dieDL50 und DL0 (Dosen des trans-1,3-Diphenyl-2-propen-1-on ohne offensichtlichen Effekt) bei 24 Stunden. Ebenso schätzte man das Potential der Toxizität (pT) (Luckey und Venugopal, 1977. J. Toxicol. & Envirn. Health. 2:633.)
(§2) Das DL50 schätzte man bei 1494 mg/Kg bei 24 Stunden (Figur 4). Ausgehend von diesen Daten deduzierte man das das trans-1,3-Diphenyl-2-propen-1-on eine leicht toxische Substanz ist mit DL50 schwankend zwischen 0,5 und 5 g/kg (Loomis, 1982. Ed acribia. Zaragoza, 33-43). Der letale Effekt null für trans-1,3-Diphenyl-2-propen-1-on bei 24 Stunden war DL0=653,85 mg/kg.
(§3) Das toxische Potential schätzte man auf pT50=2,14.

[5] = test system: Albino-Swiss Maus; test: as above; type: in vivo
Excerpt: as §1, §2, §3

[6] = test system: Meloidogyne javanica; test: Field effect in a banana plantation greenhouse infested with nematodes (1.2); type: in vivo; settings: 0,05 mmol solution, 3000 l with irrigation water; soil samples three days later
Excerpt: Man bereitete 3000 Liter einer Lösung von trans-1,3-Diphenyl-2-propen-1-on 0,05 mmol und verwendete diese am Boden mit dem Wasser der Bewässerung in einem Gewächshaus der Bananenanpflanzung, das von dem phytoparasitischen Nematoden Meloidogyne javanica befallen war. Drei Tage später nahm man Proben des Bodens der behandelten Parzelle und stellte fest, das in den Extraktionen von Nematoden mittels der Methode der Zentrifugation auf Zucker (Extraktion von sowohl lebenden und toten Nematoden) lediglich 25% lebende Larven der M. javanica zu finden waren, sodaß die Behandlung mit trans-1,3-Diphenyl-2-propen-1-on eine Näherungsweiseeffektivität von 75% hatte.

[7] = test system: M. javanica; test: Infestation index of tomato roots (1.3); type: in vivo; settings: index 0 to 5; tomato plants in soil treated as in experiment 1.2; untreated soil ima=4,33
Excerpt: Man pflanzte Tomatenpflanzen in einer kommerziell erhältlichen Auswahl, anfällig für M. javanica, um die Pflanzen der Bananenpflanzung, die mit trans-1,3-Diphenyl-2-propen-1-on des Experimentes 1.2 behandelt wurde, wie auch um solche, die nicht behandelt wurden. Der Index des Befalles der Wurzeln der Tomate gab uns eine näherungsweise Vorstellung des Niveaus der Infektion mit Nematoden der Wurzelknoten im Feld (Bridge & Page, 1980. Tropical Pest Management, 26:296-298). Zur Klassifikation der angegriffe der Nematoden auf die Wurzeln der Tomate etablierte man einen Index des Befalles von 0 bis 5. Die Pflanzen, die in dem mit trans-1,3-Diphenyl-2-propen-1-on behandeltem Boden wuchsen, erhielten einen mittleren Befallindex (ima) der deutlich kleiner war (ima=3) als derjenige der Pflanzen, die im Boden ohne Behandlung (ima=4,33) wuchsen.

[8] = test system: Globodera rostochienensis und Globodera pallida; test: Nematostatic effect: inhibition of hatching from cysts (Example 2); type: in vivo; settings: for activity at 10 µM: im, 360 h, 0,01 mmol, read-out: Bildung von Einschlußkörpern im Verhältnis zur Bekämpfung
Excerpt: Man realisierte ein Experiment, um den Effekt von trans-1,3-Diphenyl-2-propen-1-on bei der Bildung von Einschlußkörpern der Globodera spp. zu sehen. Man setzte 10 Zysten einer gemischten Population der Spezie Globodera rostochienensis und Globodera pallida in Violen mit 2cc einer Lösung, die 10 mmol ZnSO4 als Induktionsmittel der Bildung von Einschlußkörpern enthielt, und eine variable Konzentration von trans-1,3-Diphenyl-2-propen-1-on (0,05, 0,04, 0,03, 0,01 und 0,005 mmol). Die in den vier Replikatoren und in den Bekämpfungen entwickelten Jungen zählte man periodisch während 15 Tagen. Auf der Basis der Regressionskurve, die die Resultate des Experimentes besser beschreibt, schätzte man, was die Anwesenheit von nur 0,007 mmol von trans-1,3-Diphenyl-2-propen-1-on während 15 Tagen ausreichend war, um die Bildung von Einschlußkörpern auf die Hälfte derjenigen der Bekämpfung zu reduzieren.
Nachfolgend und mit dem Ziel zu sehen, ob die Hinderung der Bildung von Einschlußkörpern irreversibel sei, entfernt man die Zysten, wäscht man mit destilliertem Wasser und setzt sie in neue Violen mit 2cc einer Lösung, die lediglich das Induktionsmittel der Bildung von Einschlußkörpern (10 mmol ZnSO4) enthielt. Man fand heraus, das der Bildung von Einschlußkörpern hindernde Effekt des trans-1,3-Diphenyl-2-propen-1-on bei einer Dosis über 0,03 mmol unumkehrbar ist. Die bei der Dosis von 0,01 mmol auftretende Bildung von Einschlußkörpern war deutlich geringer als die der Bekämpfung (37,28%) in den ersten 15 Tagen und praktisch null ( es entwickelten sich lediglich 4,6% im Verhältnis zur Bekämpfung) nach der Herausnahme des trans-1,3-Diphenyl-2-propen-1-on bei 15 Tagen seit Beginn des Experimentes (Figur 3).

[9] = Brine shrimp assay (Example 4); settings: in vivo, Artemia salina, read-out: CL50
Excerpt: Die Analyse der Toxizität einer Substanz auf eine Salzgarnele Artemia salina (Brine shrimp) vermitteln eine angenäherte Vorstellung der biologischen Aktivität eines Produktes und insbesondere seiner Zytotoxizität.
Das Experiment wurde durchgeführt nach der Methode, die durch Mayer et al., 1982, beschrieben wurde ( Planta Med. 45:31-34), wobei das CL50 bei 24 Stunden für die Garnelen berechnet wird. Man benutzte vier Replikatoren, jeweils mit einer der Konzentrationen von trans-1,3-Diphenyl-2-propen-1-on (0,1, 0,01, 0,001 und 0,0001 mmol) und adäquate Bekämpfungen. Das geschätzte CL50 lag bei 0,0247 mmol, Dosen, die annäherungsweise mit denjenigen übereinstimmen, die für die Larven des zweiten Stadiums der Nematoden der Zyste berechnet wurden (CL50=0,033).

[10] = test system: Vinca major, Adiantum capillus-veneris, Begonia rex, Hedera helix; test: Phytotoxicity: development of laboratory plants (5.2); type: in vivo; settings: 0,05 mmol with irrigation at field capacity, 50 days, 25°C, 80% relative humidity
Experimental: Die Phytotoxizität der trans-1,3-Diphenyl-2-propen-1-on studierte man im Laboratorium unter Benutzung von Vinca major Pflanzen (8 Pflanzen), Adiantum capillus-veneris (2 Pflanzen), Begonia rex (2 Pflanzen) und Hedera helix (2 Pflanzen), die man an Ort und Stelle zog und in einer Kammer bei 25°C, 80% relativer Luftfeuchtigkeit und 13 Stunden Licht pro Tag kultivierte. Die Hälfte der Pflanzen behandelte man mit einer Dosis von trans-1,3-Diphenyl-2-propen-1-on von 0,05 mmol, das man auf eine Bewässerung mit Feldkapazität anwendete.

[11] = test system: Musa spp. cv Cavendish ,,Gran enano"; test: Phytotoxicity: banana plants (5.2); type: in vivo
Excerpt: Man studierte gleitherweise die Phytotoxizität von trans-1,3-Diphenyl-2-[…] auf Pflanzen der Bananenpflanzung (Musa spp. cv Cavendish ,Gran enano"). Bananenpflanzungen, die drei Monate alt waren und aus einer Kultivierung in vitro stammten, pflanzte man in Holzkübel von 5 l Kapazität mit einem Substrat von 1:1:1 (Torf:Sand:Kies) und ordnete diese zufällig in einem Gewächshaus an. Für dieses Experiment ordnete man 10 Replikatoren zur Behandlung und 5 zur Bekämpfung an. […]

[12] = tomato, in vivo
[13] = test system: Kresse (Nasturtium officinale); test: Phytotoxicity: germination and elongation of cress seeds (5.1); settings: for activity at 50 µM / activity at 500 µM: Nasturtium officinale, 168 h
[14] = test system: Tomate (Lycopersicum esculentum var. marglobe); test: Phytotoxicity: germination and elongation of tomato seeds (5.1); settings: tomato, 0,05 and 0,5 mmol, statement in words
[15] = read-out: TE: Rate der Verlängerung

SMILES: CNC(=O)O/N=C/C(C)(C)SC [Aldicarb]
- DL50 [1]: 0,3 mg/Kg

SMILES: CNC(=O)Oc1cccc2c1OC(C)(C)C2 [Carbofurano]
- DL50 [1]: 2 mg/kg

SMILES: CN1CSC(=S)N(C)C1 [Dazomet]
- DL50 [1]: 180 mg/kg

SMILES: CCOP(=O)(NC(C)C)Oc1ccc(SC)c(C)c1 (centres unmarked) [Fenamifos]
- DL50 [1]: 22,7 mg/Kg

SMILES: CNC(=O)ON=C(SC)C(=O)N(C)C [Oxamilo]
- DL50 [1]: 2,3 mg/Kg

SMILES: CC(=O)C#Cc1ccccc1 [Verbindung 1, 4-Phenyl-3-butin-2-on]
- toxischer Effekt ([2]; 56 mg/kg intravenous): keinen toxischen Effekt
- LC50 [3]: 3.7 µM and 0.53 µg/mL
- EC100 [3]: < 50 µM and < 7.21 µg/mL

SMILES: C=CSc1ccccc1 [Verbindung 2, Phenylvinylsulfid]
- LC50 [3]: 21 µM and 2.86 µg/mL

SMILES: O=C/C=C/c1ccccc1 [Verbindung 3, trans-Zimtaldehyd]
- LC50 [3]: 24 µM and 3.17 µg/mL
- EC100 [3]: < 1000 µM and < 132 µg/mL

SMILES: C=C[S+]([O-])c1ccccc1 (centres unmarked) [Verbindung 4, Phenylvinylsulfoxid]
- LC50 [3]: 111 µM and 16.9 µg/mL
- EC100 [3]: < 1000 µM and < 152 µg/mL

SMILES: CC(=O)/C=C/c1ccccc1 [Verbindung 5, trans-4-Phenyl-3-buten-2-on]
- LD50 ([2]; intraperitoneal): 1210 mg/kg
- LD50 ([2]; intravenous): 112 mg/kg
- LC50 [3]: 168 µM and 24.6 µg/mL
- EC100 [3]: < 1000 µM and < 146 µg/mL

SMILES: O=C1CCC(c2ccccc2)O1 (centres unmarked) [Verbindung 6, γ-Phenyl-γ-butirolacton]
- LC50 [3]: 282 µM and 45.7 µg/mL
- EC100 [3]: < 1000 µM and < 162 µg/mL

SMILES: O=C(Cc1ccccc1)Cc1ccccc1 [Verbindung 7, 1,3-Diphenylaceton]
- LC50 [3]: 961 µM and 202 µg/mL

SMILES: O=C(/C=C/c1ccccc1)c1ccccc1 [Verbindung 8, trans-1,3-diphenyl-2-propen-1-on]
- LD50 at 24 h [4]: 1490 mg/kg
- toxisches Potential pT50 ([5]; estimated from the mouse i.p. data (Luckey and Venugopal)): 2,14
- DL0 (letaler Effekt null) ([5]; male Albino-Swiss mouse, intraperitoneal, 24 h): 653,85 mg/kg
- DL50 ([5]; male Albino-Swiss mouse, intraperitoneal, 24 h, estimated from regression curve, 1440 min): 1492*** mg/Kg
- Näherungsweiseeffektivität [6]: ~75%
- lebende Larven der M. javanica [6]: 25%
- mittlerer Befallindex (ima) [7]: 3
- IC50 ([8]; Globodera pallida, 360 h, 15 days exposure, 10 mmol ZnSO4 as hatching inducer, hatching reduced to half of control, read-out: Bildung von Einschlußkörpern hemmende Dosis 50 (DIE50)): 7 µM
- activity at 10 µM ([8]; Globodera pallida, after removal of the compound at day 15): 4.6%
- activity at 10 µM ([8]; Globodera pallida, first 15 days): 37.3%
- Bildung von Einschlußkörpern ([8]; concentrations of 0,03 mmol and more, 15 days): hörte die Bildung von Einschlußkörpern völlig auf
- Reversibility of the hatching-inhibiting effect ([8]; dose above 0,03 mmol, cysts washed and placed in 10 mmol ZnSO4 only): unumkehrbar
- LC50 at 24 h [9]: 24.7 µM
- Wachstum und allgemeiner Aspekt der Pflanzen [10]: keine Unterschiede im Wachstum oder im allgemeinen Aspekt
- Effekt auf Pflanzen der Bananenpflanzung ([11]; 0,05 and 0,5 mmol with irrigation water, after 3 months, greenhouse pots): keinen Effekt
- Effekt auf Pflanzen der Bananenpflanzung ([11]; after 6 months, treated banana plants in the greenhouse of Example 1.2): Ebensowenig stellt man einen Effekt
- activity at 168 h, 50 µM ([12]; TE: Rate der Verlängerung): 105%
- activity at 168 h, 500 µM ([12]; TE: Rate der Verlängerung): 89.2%
- activity at 168 h, 50 µM ([12]; TG: Rate der Keimung): 103%
- activity at 168 h, 500 µM ([12]; TG: Rate der Keimung): 100%
- activity at 50 µM [13, 15]: 97.9%
- activity at 500 µM [13, 15]: 18.4%
- activity at 50 µM ([13]; read-out: TG: Rate der Keimung): 78.4%
- activity at 500 µM ([13]; read-out: TG: Rate der Keimung): 86.5%
- TE: Rate der Verlängerung ([13]; cress primary root, 0,5 mmol, 7 days, 25°C, percent of control): deutliche Verminderung der primären Wurzel
- TG: Rate der Keimung ([13]; cress, 0,5 mmol, 7 days, 25°C, percent of control): leichte Verminderung der Keimung
- Rate der Keimung [14]: variierte bei der Tomate nicht
- Verlängerungsrate [14]: variierte bei der Tomate nicht signifikant
- LC50 [3]: 33 µM and 6.86 µg/mL
- EC100 [3]: < 50 µM and < 10.4 µg/mL
